For this assay, the system named is WEHI. As to the kind of experiment: Inhibition of CpG-oligodeoxynucleotides-induced immunostimulation in mouse WEHI 231 cells. Type of assay: functional, cell-based. Particulars: for EC50: Mus musculus, WEHI.

Broadly, the EC50 is the concentration giving half of the maximal effect.

Molecules are shown by their SMILES. “And” between values parts separate entries of the source, which are not always exact repeats. Equal entries are not always repeated.

With `CN1CCN(CCNc2cc(-c3ccc(F)cc3)nc3ccccc23)CC1`, the EC50 is 18.6 nM.
The same measure, in the same setting: the result for `CN(C)CCCNc1cc(-c2cccc(CNCCN3CCOCC3)c2)nc2ccccc12` reads 20.4 nM; that for `CCN(CC)CCNc1cc(-c2ccc(C)cc2)nc2ccccc12`, 18.6 nM; that for `CN(C)CCCCCCNc1cc(-c2ccc(F)cc2)nc2ccccc12`, 20.4 nM.
In the case of `CN(C)CCCCNc1cc(-c2ccc(F)cc2)nc2ccccc12`, for the setting “wehi”, the “Log EC50” value was -8.26 and -7.76.

These data come from ChEMBL document CHEMBL1144506, “Fujita-Ban QSAR analysis and CoMFA study of quinoline antagonists of immunostimulatory CpG-oligodeoxynucleotides” (Bioorg Med Chem, 2007).
